# Source: patent US4515708A, “Corrosion inhibitors” (Exxon Research & Engineering Co., priority 1982, dated 1985)
# Where a name gives a salt, the structure may show the parent alone. Read-outs that look alike come from different tables or passages of the source.
# Assays:
# [1] = Corrosion Test 1 (dynamic wheel test; 3 wt% brine/Mentor 28; CO2 + H2S); details: for % Protection: 24 h, 70° C.
# Description: (§1) For each compound three mild steel coupons (approximately 100 mm×12 mm×1.5 mm) were tested at each concentration. Each was contacted in a 250 ml bottle with 200 ml of a test fluid either saturated with a carbon dioxide at 20° C. or containing 100 ppm hydrogen sulphide or having both CO2 and H2 S present in those amounts. The test fluid was treated with a 30% aqueous solution of the compound under test at 2, 10, 50 and 250 ppm except where indicated to the contrary. The coupon was subjected to a dynamic wheel test in which the bottle was mounted radially on the periphery of 650 mm diameter wheel which was rotated at about 40 rpm for 24 hours at 70° C. The weight loss was obtained, and also measured in a control experiment where no inhibitor was present. From this the % protection was calculated as % reduction in weight loss.
# Test fluid: 100 ml 3 wt% brine/100 ml Mentor 28 (Mentor®28 is a depolarised kerosene available from Exxon Chemical Company)
# (§2) Corrosives: Saturated CO2 +100 ppm H2 S
# [2] = Emulsion Test (3 wt% brine / heptane); type: physicochemical; design: Emulsion thickness after 30 mins: unit not given here; details: for Time to break emulsion: 1 ml of 35 wt% IPA solution, 50 ml 3 wt% brine, 50 ml heptane; for Appearance after 30 mins, hydrocarbon: hydrocarbon layer; for Appearance after 30 mins, hydrocarbon / Appearance after 30 mins, water / Emulsion thickness after 30 mins: 50 ml 3 wt% brine/50 ml heptane; for Appearance after 30 mins, water: water layer
# Description: 1 ml of the solutions used for Test A was shaken with 50 ml of 3 wt% brine and 50 ml of heptane for 1 minute in a 150 ml bottle. The emulsion was observed, and the time noted for the emulsion to break and form a clean interface with clear liquid layers. If at 30 minutes this had not occurred, the appearance was recorded together with the thickness of any persisting emulsion.
# [3] = Solubility Test (35 wt% solution in isopropylalcohol shaken with water, brine or heptane); type: physicochemical; details: for SOLUBILITY IN: Brine: 0.3 ml of 35 wt% IPA solution in 10 ml 5 wt% NaCl solution
# Description: The active material under test was made up into a 35 wt% solution in isopropylalcohol (IPA). 0.3 ml of this solution was shaken with 10 ml of each of the liquids in which solubility is to be tested: water, 5 wt% NaCl solution (brine) and heptane. The mixture was observed after 30 minutes and 24 hours.
# [4] = Corrosion Test 2 (dynamic wheel test; 3 wt% brine; CO2 + H2S); details: 24 h, 70° C.
# Description: as §1
# Test Fluid: 200 ml 3 wt% brine
# as §2
# [5] = Corrosion Test 4 (dynamic wheel test; 3 wt% brine + Mentor 28; H2S); details: 24 h, 70° C.
# Description: as §1
# Test fluid: 100 ml 3 wt% brine+100 ml Mentor 28
# Corrosives: 100 ppm H2 S (prior nitrogen purge)
# [6] = 0.3 ml of 35 wt% IPA solution in 10 ml heptane, 30 minutes and 24 hours
# [7] = 0.3 ml of 35 wt% IPA solution in 10 ml water, observed after 30 minutes and 24 hours
# [8] = 2 ppm, * active material added as undiluted compound
# [9] = 10 ppm, * active material added as undiluted compound
# [10] = 50 ppm, * active material added as undiluted compound
# [11] = 250 ppm, * active material added as undiluted compound
Structure (SMILES),"% Protection ([1]; 2 ppm, 30% solution) [%]","% Protection ([1]; 10 ppm, 30% solution) [%]","% Protection ([1]; 50 ppm, 30% solution) [%]","% Protection ([1]; 250 ppm, 30% solution) [%]",Time to break emulsion [2] [min],"Appearance after 30 mins, hydrocarbon [2]","Appearance after 30 mins, water [2]","SOLUBILITY IN: Heptane [3, 6]","SOLUBILITY IN: Water [3, 7]",other results
"CCc1ccccn1 [2-ethylpyridine.HCL, reference compound]",10,10,24,18,,,,,,
NCCCNCCc1ccccn1 [Example 14],,,,,> 30,clear,hazy,S,S,"SOLUBILITY IN: Brine ([3]; 30 minutes and 24 hours): S; % Protection [1, 8]: 47%; % Protection [1, 9]: 70%; % Protection [1, 10]: 70%; % Protection [1, 11]: 92%; % Protection ([4]; 2 ppm): 26%; % Protection ([4]; 10 ppm): 64%; % Protection ([4]; 50 ppm): 74%; % Protection ([4]; 250 ppm): 90%"
"NCCc1ccccn1 [2-aminoethyl pyridine, reference compound]",0,45,55,86,,,,,,
CCCCCCCCCCNCCc1ccncc1 [Example 24],58,80,88,95,> 30,hazy,hazy,S,S,
CCCCCCCCCCCCNCCc1ccccn1 [21 acetate salt],21,74,94,96,,,,,,
CCCCCCCCNCCc1ccccn1 [Example 2],,,,,5,clear,clear,,,"SOLUBILITY IN: Heptane [3]: S; % Protection [1, 8]: 50%; % Protection [1, 9]: 82%; % Protection [1, 10]: 85%; % Protection [1, 11]: 89%; % Protection ([4]; 2 ppm): 37%; % Protection ([4]; 10 ppm): 34%; % Protection ([4]; 50 ppm): 84%; % Protection ([4]; 250 ppm): 94%"
NCCCNCCc1ccncc1 [Example 33],,,,,1,clear,clear,,S,SOLUBILITY IN: Brine ([3]; 30 minutes and 24 hours): S
"CCCCCCCCCCCCNCCc1ccccn1 [Example 21, N-dodecyl-β-(2-pyridyl)-ethylamine]",17,51,86,93,,,,,,corrosion protection compared with Example 4 ([1]; after addition of acetic acid): substantially identical protection to that seen in Example 4; corrosion protection compared with Example 4 ([1]; unsalified product): inferior corrosion protection to Example 4
"CCc1ccccn1 [2-ethylpyridine, reference compound]",3,7,16,23,,,,,,
CCCCCCCCCCCCCCCCNCCc1ccccn1 [Example 6],7,72,89,98,> 30,hazy,hazy,S,S,% Protection ([5]; 2 ppm): 0%; % Protection ([5]; 10 ppm): 21%; % Protection ([5]; 50 ppm): 58%; % Protection ([5]; 250 ppm): 70%; Emulsion thickness after 30 mins [2]: 1.0; % Protection ([4]; 2 ppm): 20%; % Protection ([4]; 10 ppm): 41%; % Protection ([4]; 50 ppm): 93%; % Protection ([4]; 250 ppm): 97%
NCCNCCc1ccncc1 [Example 32],,,,,> 30,clear,hazy,,,
CCCCCCCCNCCc1ccncc1 [Example 23],38,49,83,92,10,clear,clear,,,SOLUBILITY IN: Heptane [3]: S; SOLUBILITY IN: Water [3]: S
CCCCCCCCCCCCCCCCNCCc1ccncc1 [Example 27],39,69,84,96,> 30,clear,hazy,S,S,Emulsion thickness after 30 mins [2]: 3.0; % Protection ([4]; 2 ppm): 40%; % Protection ([4]; 10 ppm): 47%; % Protection ([4]; 50 ppm): 84%; % Protection ([4]; 250 ppm): 94%
c1ccc(CNCCc2ccncc2)cc1 [Example 29],25,56,60,67,1,clear,clear,,,
CCCCCCCCCCCCCCNCCc1ccccn1 [Example 5],0,43,46,90,> 30,hazy,hazy,S,S,Emulsion thickness after 30 mins [2]: 0.5; % Protection ([4]; 2 ppm): 3%; % Protection ([4]; 10 ppm): 48%; % Protection ([4]; 50 ppm): 93%; % Protection ([4]; 250 ppm): 94%
"CCc1ccncc1 [4-ethylpyridine.HCL, reference compound]",2,5,13,16,,,,,,
CCCCCCCCCCCCCCNCCc1ccncc1 [Example 26],,,,,> 30,clear,hazy,S,S,Emulsion thickness after 30 mins [2]: 1.0
